{"source": "the supplement of paper PMC10307832", "experiment_in_all_cases": "relative viability (nuclei count vs DMSO), 5 days (fraction); higher = more cells survive", "key": {"A-427": {"system": "A-427", "in_short": "(§1)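 Relative viability equals treated-well nuclei counts divided by vehicle-well nuclei counts. Counts came from 4× images of lung cancer cell lines grown in 1536-well plates for 5 days after pin-tool dosing on the day after seeding. Dosing used one drug alone or a fixed anchor-drug dose plus five library-drug doses (not always all listed) in √10 steps, and values are medians of duplicate plates.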"}, "COR-L 105": {"system": "COR-L 105", "in_short": "as §1"}, "EPLC-272H": {"system": "EPLC-272H", "in_short": "as §1"}, "HCC-366": {"system": "HCC-366", "in_short": "as §1"}, "HCC-78": {"system": "HCC-78", "in_short": "as §1"}, "HOP-62": {"system": "HOP-62", "in_short": "as §1"}, "LC-2-ad": {"system": "LC-2-ad", "in_short": "as §1"}, "LCLC-97TM1": {"system": "LCLC-97TM1", "in_short": "as §1"}, "LU99A": {"system": "LU99A", "in_short": "as §1"}, "LXF-289": {"system": "LXF-289", "in_short": "as §1"}, "NCI-H1755": {"system": "NCI-H1755", "in_short": "as §1"}, "NCI-H1792": {"system": "NCI-H1792", "in_short": "as §1"}, "NCI-H1793": {"system": "NCI-H1793", "in_short": "as §1"}, "NCI-H1915": {"system": "NCI-H1915", "in_short": "as §1"}, "NCI-H1944": {"system": "NCI-H1944", "in_short": "as §1"}, "NCI-H1975": {"system": "NCI-H1975", "in_short": "as §1"}, "NCI-H2085": {"system": "NCI-H2085", "in_short": "as §1"}, "NCI-H2170": {"system": "NCI-H2170", "in_short": "as §1"}, "NCI-H358": {"system": "NCI-H358", "in_short": "as §1"}, "NCI-H460": {"system": "NCI-H460", "in_short": "as §1"}, "SK-LU-1": {"system": "SK-LU-1", "in_short": "as §1"}, "SW 900": {"system": "SW 900", "in_short": "as §1"}, "UMC-11": {"system": "UMC-11", "in_short": "as §1"}}}
{"smiles": "O=C(O)c1ccc(-c2c[nH]c3ncc(-c4ccccc4)cc23)cc1C1CCCC1", "note": "+ CC(=O)Nc1cccc(-n2c(=O)n(C3CC3)c(=O)c3c(Nc4ccc(I)cc4F)n(C)c(=O)c(C)c32)c1 [Trametinib] (partner 0.02 µM)", "values": [{"measurement": "relative viability", "setting": "A-427; first compound 0.04 µM", "result": 0.759}, {"measurement": "relative viability", "setting": "A-427; first compound 0.1265 µM", "result": 0.78}, {"measurement": "relative viability", "setting": "A-427; first compound 0.4 µM", "result": 0.741}, {"measurement": "relative viability", "setting": "A-427; first compound 1.265 µM", "result": 0.584}, {"measurement": "relative viability", "setting": "COR-L 105; first compound 0.04 µM", "result": 0.402}, {"measurement": "relative viability", "setting": "COR-L 105; first compound 0.1265 µM", "result": 0.456}, {"measurement": "relative viability", "setting": "COR-L 105; first compound 0.4 µM", "result": 0.46}, {"measurement": "relative viability", "setting": "COR-L 105; first compound 1.265 µM", "result": 0.506}, {"measurement": "relative viability", "setting": "EPLC-272H; first compound 0.04 µM", "result": 0.307}, {"measurement": "relative viability", "setting": "EPLC-272H; first compound 0.1265 µM", "result": 0.27}, {"measurement": "relative viability", "setting": "EPLC-272H; first compound 0.4 µM", "result": 0.283}, {"measurement": "relative viability", "setting": "EPLC-272H; first compound 1.265 µM", "result": 0.276}, {"measurement": "relative viability", "setting": "HCC-366; first compound 0.04 µM", "result": 0.343}, {"measurement": "relative viability", "setting": "HCC-366; first compound 0.1265 µM", "result": 0.466}, {"measurement": "relative viability", "setting": "HCC-366; first compound 0.4 µM", "result": 0.311}, {"measurement": "relative viability", "setting": "HCC-366; first compound 1.265 µM", "result": 0.309}, {"measurement": "relative viability", "setting": "HCC-78; first compound 0.1265 µM", "result": 0.937}, {"measurement": "relative viability", "setting": "HCC-78; first compound 0.4 µM", "result": 0.945}, {"measurement": "relative viability", "setting": "HCC-78; first compound 1.265 µM", "result": 0.829}, {"measurement": "relative viability", "setting": "HOP-62; first compound 0.04 µM", "result": 0.37}, {"measurement": "relative viability", "setting": "HOP-62; first compound 0.1265 µM", "result": 0.407}, {"measurement": "relative viability", "setting": "HOP-62; first compound 0.4 µM", "result": 0.412}, {"measurement": "relative viability", "setting": "HOP-62; first compound 1.265 µM", "result": 0.376}, {"measurement": "relative viability", "setting": "LC-2-ad; first compound 0.04 µM", "result": 0.876}, {"measurement": "relative viability", "setting": "LC-2-ad; first compound 0.1265 µM", "result": 0.921}, {"measurement": "relative viability", "setting": "LC-2-ad; first compound 0.4 µM", "result": 0.897}, {"measurement": "relative viability", "setting": "LC-2-ad; first compound 1.265 µM", "result": 0.769}, {"measurement": "relative viability", "setting": "LCLC-97TM1; first compound 0.04 µM", "result": 0.202}, {"measurement": "relative viability", "setting": "LCLC-97TM1; first compound 0.1265 µM", "result": 0.204}, {"measurement": "relative viability", "setting": "LCLC-97TM1; first compound 0.4 µM", "result": 0.173}, {"measurement": "relative viability", "setting": "LCLC-97TM1; first compound 1.265 µM", "result": 0.207}, {"measurement": "relative viability", "setting": "LU99A; first compound 0.04 µM", "result": 0.575}, {"measurement": "relative viability", "setting": "LU99A; first compound 0.1265 µM", "result": 0.516}, {"measurement": "relative viability", "setting": "LU99A; first compound 0.4 µM", "result": 0.52}, {"measurement": "relative viability", "setting": "LU99A; first compound 1.265 µM", "result": 0.51}, {"measurement": "relative viability", "setting": "LXF-289; first compound 0.04 µM", "result": 0.625}, {"measurement": "relative viability", "setting": "LXF-289; first compound 0.1265 µM", "result": 0.685}, {"measurement": "relative viability", "setting": "LXF-289; first compound 0.4 µM", "result": 0.666}, {"measurement": "relative viability", "setting": "LXF-289; first compound 1.265 µM", "result": 0.535}, {"measurement": "relative viability", "setting": "NCI-H1755; first compound 0.04 µM", "result": 0.778}, {"measurement": "relative viability", "setting": "NCI-H1755; first compound 0.1265 µM", "result": 0.777}, {"measurement": "relative viability", "setting": "NCI-H1755; first compound 0.4 µM", "result": 0.799}, {"measurement": "relative viability", "setting": "NCI-H1755; first compound 1.265 µM", "result": 0.754}, {"measurement": "relative viability", "setting": "NCI-H1792; first compound 0.04 µM", "result": 0.375}, {"measurement": "relative viability", "setting": "NCI-H1792; first compound 0.1265 µM", "result": 0.454}, {"measurement": "relative viability", "setting": "NCI-H1792; first compound 0.4 µM", "result": 0.407}, {"measurement": "relative viability", "setting": "NCI-H1792; first compound 1.265 µM", "result": 0.392}, {"measurement": "relative viability", "setting": "NCI-H1793; first compound 0.04 µM", "result": 0.407}, {"measurement": "relative viability", "setting": "NCI-H1793; first compound 0.1265 µM", "result": 0.51}, {"measurement": "relative viability", "setting": "NCI-H1793; first compound 0.4 µM", "result": 0.497}, {"measurement": "relative viability", "setting": "NCI-H1793; first compound 1.265 µM", "result": 0.34}, {"measurement": "relative viability", "setting": "NCI-H1915; first compound 0.04 µM", "result": 0.293}, {"measurement": "relative viability", "setting": "NCI-H1915; first compound 0.1265 µM", "result": 0.313}, {"measurement": "relative viability", "setting": "NCI-H1915; first compound 0.4 µM", "result": 0.287}, {"measurement": "relative viability", "setting": "NCI-H1915; first compound 1.265 µM", "result": 0.289}, {"measurement": "relative viability", "setting": "NCI-H1944; first compound 0.04 µM", "result": 0.405}, {"measurement": "relative viability", "setting": "NCI-H1944; first compound 0.1265 µM", "result": 0.437}, {"measurement": "relative viability", "setting": "NCI-H1944; first compound 0.4 µM", "result": 0.487}, {"measurement": "relative viability", "setting": "NCI-H1944; first compound 1.265 µM", "result": 0.37}, {"measurement": "relative viability", "setting": "NCI-H1975; first compound 0.04 µM", "result": 0.319}, {"measurement": "relative viability", "setting": "NCI-H1975; first compound 0.1265 µM", "result": 0.435}, {"measurement": "relative viability", "setting": "NCI-H1975; first compound 0.4 µM", "result": 0.395}, {"measurement": "relative viability", "setting": "NCI-H1975; first compound 1.265 µM", "result": 0.32}, {"measurement": "relative viability", "setting": "NCI-H2085; first compound 0.04 µM", "result": 0.508}, {"measurement": "relative viability", "setting": "NCI-H2085; first compound 0.1265 µM", "result": 0.488}, {"measurement": "relative viability", "setting": "NCI-H2085; first compound 0.4 µM", "result": 0.499}, {"measurement": "relative viability", "setting": "NCI-H2085; first compound 1.265 µM", "result": 0.384}, {"measurement": "relative viability", "setting": "NCI-H2170; first compound 0.04 µM", "result": 0.899}, {"measurement": "relative viability", "setting": "NCI-H2170; first compound 0.1265 µM", "result": 0.925}, {"measurement": "relative viability", "setting": "NCI-H2170; first compound 0.4 µM", "result": 0.887}, {"measurement": "relative viability", "setting": "NCI-H2170; first compound 1.265 µM", "result": 0.79}, {"measurement": "relative viability", "setting": "NCI-H358; first compound 0.04 µM", "result": 0.146}, {"measurement": "relative viability", "setting": "NCI-H358; first compound 0.1265 µM", "result": 0.129}, {"measurement": "relative viability", "setting": "NCI-H358; first compound 0.4 µM", "result": 0.138}, {"measurement": "relative viability", "setting": "NCI-H358; first compound 1.265 µM", "result": 0.0857}, {"measurement": "relative viability", "setting": "NCI-H460; first compound 0.04 µM", "result": 0.13}, {"measurement": "relative viability", "setting": "NCI-H460; first compound 0.1265 µM", "result": 0.189}, {"measurement": "relative viability", "setting": "NCI-H460; first compound 0.4 µM", "result": 0.238}, {"measurement": "relative viability", "setting": "NCI-H460; first compound 1.265 µM", "result": 0.23}, {"measurement": "relative viability", "setting": "SK-LU-1; first compound 0.04 µM", "result": 0.522}, {"measurement": "relative viability", "setting": "SK-LU-1; first compound 0.1265 µM", "result": 0.591}, {"measurement": "relative viability", "setting": "SK-LU-1; first compound 0.4 µM", "result": 0.513}, {"measurement": "relative viability", "setting": "SK-LU-1; first compound 1.265 µM", "result": 0.37}, {"measurement": "relative viability", "setting": "SW 900; first compound 0.04 µM", "result": 0.757}, {"measurement": "relative viability", "setting": "SW 900; first compound 0.1265 µM", "result": 0.711}, {"measurement": "relative viability", "setting": "SW 900; first compound 0.4 µM", "result": 1.37}, {"measurement": "relative viability", "setting": "SW 900; first compound 1.265 µM", "result": 0.454}, {"measurement": "relative viability", "setting": "UMC-11; first compound 0.04 µM", "result": 0.702}, {"measurement": "relative viability", "setting": "UMC-11; first compound 0.1265 µM", "result": 0.719}, {"measurement": "relative viability", "setting": "UMC-11; first compound 0.4 µM", "result": 0.711}, {"measurement": "relative viability", "setting": "UMC-11; first compound 1.265 µM", "result": 0.641}]}
